Test results taken from patent publication US8658416B2, “Toxin-eating bacteria and bioremediation” (priority 2008, dated 2014).

How the values were obtained:
[1] = Un-inoculated media controls monitored by HPLC (antibiotic stability in SCS medium); format: physicochemical; conditions: 20 or 28 days, HPLC at 214 nm
Description: Representative isolates capable of growth on penicillin and carbenicillin as sole carbon source were selected for analysis of antibiotic removal from the growth media by High Performance Liquid Chromatography (HPLC). 2 μL of these cultures were re-inoculated into fresh SCS-antibiotic medium (5 mL) and allowed to grow for 28 days. Samples of the cultures and un-inoculated media controls were taken at regular intervals throughout the 28 day period and the catabolism of penicillin and carbenicillin was monitored at 214 nm by HPLC of filtered media from samples using a Hewlett Packard 1090 Liquid Chromatograph and a Vydac C-18 column. HPLC was performed at a flow rate of 0.3 mL/min with an acetonitrile gradient going from 5% to 65% in 30 minutes in the presence of 0.1% trifluoroacetic acid.

[2] = tested on: clonal bacterial isolates from 11 diverse soils; format: cell-based, soil bacteria; conditions: antibiotic as sole carbon source at 1 g/L in SCS media pH 5.5, 22° C., positive growth at least 10^8 cells/mL
Description: The pH was adjusted to 5.5 using HCl, and the media was sterilized through a 0.22 μm filter. Solid medium was prepared by adding 15 g agar per liter of liquid SCS media followed by autoclaving before adding antibiotics.
Clonal isolates from the liquid cultures were obtained by plating cultures out on SCS-antibiotic agar medium and resulting single colonies were picked and re-streaked on corresponding plates. Three colonies each were then inoculated into fresh SCS-antibiotic liquid media (5 mL) to confirm clonal phenotype. Final culture growth was recorded after 1 month incubation without shaking at 22° C. and cultures with at least 10^8 cells/mL were assayed as positive growth.
All antibiotics used were purchased from Sigma-Aldrich at the highest purities available.

SMILES | antibiotic peak in the un-inoculated control over the same time course [1] | soils from which clonal isolates capable of subsisting on the antibiotic were obtained [2]
CC1(C)S[C@@H]2[C@H](NC(=O)C(C(=O)O)c3ccccc3)C(=O)N2[C@H]1C(=O)O (stereo partly drawn) [carbenicillin, Carbenicillin] | remained relatively unchanged | all the soils tested
Cc1onc(-c2c(Cl)cccc2Cl)c1C(=O)N[C@@H]1C(=O)N2[C@@H]1SC(C)(C)[C@@H]2C(=O)O [dicloxacillin, Dicloxacillin] |  | 9 out of 11 soils
CCn1cc(C(=O)O)c(=O)c2ccc(C)nc21 [nalidixic acid, Nalidixic acid] |  | a majority of the soils
CC1(C)S[C@@H]2[C@H](NC(=O)Cc3ccccc3)C(=O)N2[C@H]1C(=O)O [penicillin, Penicillin G] | remained the dominant peak | all the soils tested
